Data: patent US12454687B2, “Functional genomics using CRISPR-Cas systems, compositions, methods, knock out libraries and applications thereof” (The Broad Institute, Inc., priority 2012, dated 2025)

What was measured:
[1] = system: Exon 51 of the dystrophin gene; conditions: across 48 weeks, cited from earlier work
[2] = system: EMX1 locus; assay: HDR with ssODNs and targeting vector in HUES9 cells; type: cell-based, human
From the text: (a) Either a targeting plasmid or an ssODN (sense or antisense) with homology arms can be used to edit the sequence at a target genomic locus cleaved by Cas9 (red triangle). To assay the efficiency of HDR, we introduced a HindIII site into the target locus, which was PCR-amplified with primers that anneal outside of the region of homology. […] (b) ssODNs, oriented in either the sense or the antisense (s or a) direction relative to the locus of interest, can be used in combination with Cas9 to achieve efficient HDR-mediated editing at the target locus. A minimal homology region of 40 bp, and preferably 90 bp, is recommended on either side of the modification. […] Each ssODN contains homology arms of 90 bp flanking a 12-bp insertion of two restriction sites.
114| In the HDR example, a HindIII restriction site is inserted into the EMX1 gene. These are detected by a restriction digest of the PCR amplicon:
iv. The cleavage products are imaged and quantified as described above in the SURVEYOR assay section. HDR efficiency is estimated by the formula: (b+c)/(a+b+c), where a is the integrated intensity for the undigested HDR PCR product, and b and c are the integrated intensities for the HindIII-cut fragments.
CRISPR-Cas may be easily multiplexed to facilitate simultaneous modification of several genes and mediate chromosomal microdeletions at high efficiencies. […]

[3] = system: human EMX1 locus; assay: Surveyor assay for genome modification, HEK 293 FT cells; type: cell-based; conditions: co-expression with EMX1-targeting chimeric crRNA, n=3
Experimental: Cells were transfected using Lipofectamine 2000 (Life Technologies) following the manufacturer's recommended protocol. For each well of a 24-well plate a total of 800 ng of plasmids were used.
Genomic DNA was extracted using the QuickExtract DNA extraction kit (Epicentre) following the manufacturer's protocol. […] Extracted genomic DNA was immediately processed or stored at −20° C.
The genomic region surrounding a CRISPR target site for each gene was PCR amplified, and products were purified using QiaQuick Spin Column (Qiagen) following manufacturer's protocol. A total of 400 ng of the purified PCR products were mixed with 2 μl 10× Taq polymerase PCR buffer (Enzymatics) and ultrapure water to a final volume of 20 μl, and subjected to a re-annealing process to enable heteroduplex formation: 95° C. for 10 min, 95° C. to 85° C. ramping at −2° C./s, 85° C. to 25° C. at −0.25° C./s, and 25° C. hold for 1 minute. After re-annealing, products were treated with Surveyor nuclease and Surveyor enhancer S (Transgenomics) following the manufacturer's recommended protocol, and analyzed on 4-20% Novex TBE poly-acrylamide gels (Life Technologies). Gels were stained with SYBR Gold DNA stain (Life Technologies) for 30 minutes and imaged with a Gel Doc gel imaging system (Bio-rad). Quantification was based on relative band intensities, as a measure of the fraction of cleaved DNA.

[4] = system: human EMX1 locus; assay: restriction fragment length polymorphism assay for homologous recombination; type: cell-based; conditions: HEK 293 FT, HindIII digest
From the text: The target genomic region was PCR amplified using primers outside the homology arms of the homologous recombination (HR) template. PCR products were separated on a 1% agarose gel and extracted with MinElute GelExtraction Kit (Qiagen). Purified products were digested with HindIII (Fermentas) and analyzed on a 6% Novex TBE poly-acrylamide gel (Life Technologies).

[5] = system: human EMX1 locus; assay: sequencing of amplicons containing the target locus; type: cell-based; conditions: sequencing of 327 amplicons
[6] = system: human EMX1 locus; assay: double nicking SURVEYOR assay, Cas9 nickase with pairs of guide RNAs, HEK293FT cells; type: cell-based; conditions: sgRNA pairs generating 5′ and 3′ overhangs, offset range from −278 to +58 bp
Experimental: Applicants transfected cells using Lipofectamine 2000, and transfected cells were harvested 48 or 72 hours after transfections. Double nicking-induced NHEJ were detected using the SURVEYOR nuclease assay as described previously herein (FIGS. 51, 52 and 53).

eteplirsen
functional benefit [1]: significant functional benefit | dystrophin positive fibers ([1]; average, compared to baseline): 47%

SpCas9n: SpCas9 with aspartate-to-alanine substitution (D10A) in the RuvC I catalytic domain, a nickase
HDR detection [2]: not been able to detect HDR | indels at the EMX1 protospacer target [3]: does not generate indels | integration of the HR template into the EMX1 locus [4]: catalyzed integration of the HR template | indels detected by sequencing [5]: did not detect any indels

H840A: SpCas9 with mutation H840A
indel formation with sgRNA pairs [6]: unable to observe indel formation
